Measurements from patent US7407989B2, “Compounds useful for modulating abnormal cell proliferation” (The Hospital for Sick Children, priority 2004, dated 2008).
pIC50: −log10 of the molar value.

Tests used:
[1] = tested on: Philadelphia Positive Z119 Acute Lymphoblastic Leukemia Cells; test: Killing of Philadelphia positive Z119 acute lymphoblastic leukemia cells in culture (colony assay in methylcellulose); assay type: cell-based; settings: colonies of more than 20 cells counted at 7-9 days, no exogenous growth factors, read-out: ALL (Z 119) IC50
Method: Z119 cells were plated in 1 ml volumes at a density of 5×10^4 cells/ml, in the absence of exogenous growth factors, into 35 mm petri dishes (Nunc, Gibco) containing IMDM (OCI, Toronto) plus 20% FCS (Cansera Rexdale, ON.) in 0.9% (vol/vol) methylcellulose (Fluka, Switzerland) with the indicated concentration of for various test compounds described above. Cultures were set at 37° C., 5% CO2 in a humidified atmosphere. Colonies consisting of more than 20 cells were counted at 7-9 days using an inverted microscope.

[2] = tested on: normal bone marrow cells (BFU-E colonies); test: Effect upon normal bone marrow differentiation in culture (CFU-GEMM assay, BFU-E colonies); assay type: cell-based; settings: Bone marrow cell, 336 h, BFU-E colonies evaluated at 14 days, read-out: NBM (BFU-E) IC50
Method: The CFU-GEMM assay was performed according to Fauser and Messner (1978, Blood, 52(6) 143-8) and Messner and Fausser (1980, Blut, 41(5) 327-33) with some variations. In brief, heparinized bone marrow cells were layered over Percoll (1.077 gm/ml) (Pharmacia Fine Chemical, Piscataway N.J.) and centrifuged at 400 g at 4° C. for 10 minutes to remove neutrophils and RBCs. The fractionated BM cells at […] were cultured in IMDM (OCI, Toronto) containing 0.9% (vol/vol) methylcellulose supplemented with 30% FCS (Cansera Rexdale, ON.) or normal human plasma, a cocktail of cytokines containing G-CSF (10 ng/ml, Amgen), IL-3 (40 U/ml, Immunex), MGF (50 ng/ml, Immunex), Erythropoietin (2 u/ml, Epprex) or TPO (10 ng/ml, Amgen), 5×10^−5 M Bβ-2-mercaptoethanol and the specified concentration of CR4. The culture mixture was plated in 1 ml volumes into 35 mm petri dishes and incubated at 37° C., 5% CO2 in a humidified atmosphere. All cultures were evaluated at 14 days for the number of BFU-E colonies (defined as aggregates of more than 500 hemoglobinized cells or, 3 or more erythroid subcolonies), CFU-GM colonies (defined as granulocyte or monocyte-macrophage cells or both), CFU-Meg colonies (comprising 4 or more megakaryocytes) and CFU-GEMM colonies (a mixed population comprising of all elements).

Row | SMILES | pIC50 [1] | pIC50 [2]
1 | COc1cc(/C=C/C=C/C(=O)NCc2ccc(O)c(O)c2)cc(OC)c1O [CRD-84, 5-(4-Hydroxy-3,5-dimethoxyphenyl)-penta-2E,4E-dienoic acid 3,4-dihydroxybenzylamide] | < 6.00 | < 5.00
2 | COc1cc(/C=C/C=C/C(=O)NCc2ccccc2)ccc1O [CRD-81, 5-(4-Hydroxy-3-methoxyphenyl)-penta-2E,4E-dienoic acid benzylamide] | < 6.00 | < 5.00
3 | COc1cc(/C=C/C=C/C(=O)NCc2ccc(O)c(O)c2)ccc1O [CRD-85, 5-(4-Hydroxy-3-methoxyphenyl)-penta-2E,4E-dienoic acid 3,4-dihydroxybenzylamide] | < 6.00 | < 5.00
4 | O=C(/C=C/C=C/c1ccc(O)c(O)c1)NCc1ccccc1 [CRD-82, 5-(3,4-Dihydroxyphenyl)-penta-2E,4E-dienoic acid benzylamide] | 6.34 | < 4.60
